Data published in patent US20250376689A1, “OLIGONUCLEOTIDES HAVING 6-THIO-2'-DEOXYGUANOSINE RESIDUES AND USES THEREOF” (City of Hope, priority 2021, published 2025).

Assays:
[1] = test system: TBK1 signaling downstream from STING; experiment: Western blot of activated and total TBK1 in DCs co-cultured with pretreated RM9 cells; type: cell-based, mouse
Description: FIG. 8A: RM9 prostate cancer cells were treated with a combination of 5 μM 6tdG and 1 μM CpG, 1 μM CpG(6tdG)6-p or PBS overnight, washed and incubated for the additional 3 days in fresh media. The dying cancer cells were then harvested and co-cultured for 18 h with freshly isolated, mouse primary splenic DC at a ratio of 1:10. The percentages of activated DCs (CD11c+MHC II+/CD80+ or CD86+) were analyzed by flow cytometry. FIG. 8B: Bone-marrow derived dendritic cells (BMDCs) were co-cultured with cancer cells in the presence of CpG alone, 6tdG alone, combination of CpG and 6tdG, or CpG(6tdG)6-p for 3 days. The expression of IFN-β mRNA was analyzed by real-time qPCR. Shown are results from three independent experiments; means±SEM (n=3); ****P<0.0001; *P<0.05 compared to the untreated group. FIG. 8C: TBK1 signaling downstream from STING is activated in primary mouse DCs co-cultured with RM9 cells pretreated using 6tdG alone, in combination with CpG or by CpG-(6tdG)6-p oligomer. The protein content of dendritic cells was analyzed using western blot to evaluate levels of activated and total TBK1. The protein levels were normalized to beta-actin and quantified densitometrically.

[2] = test system: resting human lymphocytes; experiment: Apoptosis/viability of resting human PBMCs (Annexin V/7AAD flow cytometry); type: cell-based; conditions: PBMCs from 3 healthy donors, treated 2 days
Description: (§1) PMBCs from 3 healthy donors were seeded at a density of 10^7/mL and treated with CpG alone, 6tdG alone, combination of CpG and 6tdG, CpG(6tdG)6-p, CpG(6tdG)5G for 2 days. Cell apoptosis was measured using flow cytometry after staining for Annexin V and 7AAD. Representative results obtained from 3 independent experiments; means±SEM (n=3). (FIG. 4B) Human T cells isolated from 3 healthy donor PBMCs using negative selection were activated with CD3/CD28 beads in the presence of 20 ng/mL human IL-2 to induce proliferation. After activation, T cells were incubated in the presence of CpG alone, 6tdG alone, combination of CpG and 6tdG, CpG(6tdG)6-p or CpG(6tdG)5G for the indicated times before subject to viability analysis in flow cytometry. (FIG. 4C) Activated and proliferating T cells, but not naïve/resting T cells, have high levels of telomerase activity. The telomerase activity was assayed using TRAPeze kit (EMD Millipore), a telomerase repeated amplification protocol, and PCR products were qualitatively analyzed in a PAGE gel.

activated T cells = experiment: Viability of CD3/CD28-activated human T cells (flow cytometry); type: cell-based; conditions: human T cells activated with CD3/CD28 beads and IL-2
Description: as §1

[3] = test system: telomerase-negative normal cells; conditions: cited from earlier work

With `Nc1nc2c(ncn2[C@H]2C[C@H](O)[C@@H](CO)O2)c(=S)[nH]1` [6tdG, 6-thio-2′-deoxyguanosine] as the compound, how does the “TBK1 signaling in primary mouse DCs” value [1] read?
The value was “activated”.

And the “viability of resting human lymphocytes” value [2]?
Its value is “Neither 6tdG nor CpG-6tdG oligomers affect viability”.

And the “cytotoxicity to activated T cells” value (activated T cells)?
The value was “cytotoxic to activated T cells”.

What about the “cytotoxic effects on telomerase-negative normal cells” value [3] of the same compound?
The value was “minimal cytotoxic effects”.
